This is an account of results in ChEMBL document CHEMBL3352455, “Small molecule disruptors of the glucokinase-glucokinase regulatory protein interaction: 4. Exploration of a novel binding pocket” (J Med Chem, 2014).

The term clearance denotes the volume of plasma or blood freed of the substance per unit of time. As a reminder, the fraction unbound is the share of the substance not bound to proteins or other matrix. Broadly, the IC50 is the concentration at which inhibition is half-maximal. For orientation: MRT means the average time that molecules of a dose stay in the body. By AUC is commonly meant concentration integrated over time. Broadly, the bioavailability is dose-corrected exposure relative to a reference, in per cent.

Each structure is given as a SMILES string.

A short description of data set [1]: Clearance in Sprague-Dawley rat at 2 mg/kg, iv. It is filed as ADME, organism-based. On the set-up: dose 2 mg/kg, route intravenous. The following applies: in vivo.
Data set [2] in a line: Fraction unbound in Sprague-Dawley rat plasma. It is filed as ADME, cell-free.
A further data set has as its target Cytochrome P450 2D6 (Homo sapiens, UniProt P10635). In words: Inhibition of CYP2D6 (unknown origin). The data set is classed as ADME.
A short description of data set [3]: Intrinsic clearance in human liver microsomes at 1 uM after 30 mins in presence of NADPH. It is filed as ADME. The following applies: read-out: CLH. (Microsomes from liver hold many membrane-bound enzymes, among them those of drug oxidation.)
A short description of data set [4]: Intrinsic clearance in rat liver microsomes at 1 uM after 30 mins in presence of NADPH. The data set is classed as ADME. The following applies: read-out: CLH.
The target in another data set is T1, Hexokinase-4 (Homo sapiens, UniProt P35557).
T1 sequence (P35557 whole entry): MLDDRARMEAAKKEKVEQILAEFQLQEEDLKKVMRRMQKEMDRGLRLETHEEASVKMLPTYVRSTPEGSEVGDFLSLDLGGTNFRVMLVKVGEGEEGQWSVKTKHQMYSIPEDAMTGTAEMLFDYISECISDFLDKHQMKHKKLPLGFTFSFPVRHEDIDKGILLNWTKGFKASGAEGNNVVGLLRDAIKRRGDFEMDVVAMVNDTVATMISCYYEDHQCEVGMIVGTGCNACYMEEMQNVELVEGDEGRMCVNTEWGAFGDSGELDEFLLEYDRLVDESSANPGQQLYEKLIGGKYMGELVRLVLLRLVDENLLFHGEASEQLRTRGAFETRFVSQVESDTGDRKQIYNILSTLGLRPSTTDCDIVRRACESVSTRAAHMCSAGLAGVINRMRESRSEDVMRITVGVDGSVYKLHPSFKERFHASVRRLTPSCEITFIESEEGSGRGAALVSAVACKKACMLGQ
In words: Inhibition of fluorescein-labeled human GK interaction with biotin-labeled human GKRP compound incubated for 20 mins prior to addition of fluorescein-labeled GK measured after 2 to 4 hrs by AlphaScreen assay. For orientation: Bead proximity is the source of the signal in Alpha formats.

The target in the next data set is Cytochrome P450 3A4 (Homo sapiens, UniProt P08684). Description: Inhibition of CYP3A4 (unknown origin). The data set is classed as ADME.
The nature of data set [5]: Mean residence time in Sprague-Dawley rat at 2 mg/kg, iv. The following applies: in vivo. It is filed as ADME, organism-based. Details: dose 2 mg/kg, route intravenous.
Data set [6] in a line: AUC in Sprague-Dawley rat at 10 mg/kg, po. It is filed as ADME, organism-based. The following applies: plasma. Details: dose 10 mg/kg, route oral.
The nature of data set [7]: Oral bioavailability in Sprague-Dawley rat at 10 mg/kg. It is filed as ADME, organism-based. The following applies: in vivo.
Data set [8] is described as follows: Volume of distribution at steady state in Sprague-Dawley rat at 2 mg/kg, iv. The following applies: in vivo, read-out: Vdss. The data set is classed as ADME, organism-based. Details: dose 2 mg/kg, route intravenous.
The next data set concerns Mus musculus. Description: Antidiabetic activity in insulin-resistant db/db mouse assessed as reduction of fed blood glucose level at 10 to 100 mg/kg, po measured at 6 hrs relative to vehicle-treated control. The data set is classed as functional. Details: scale not given: the % may be the effect or the level left. The following applies: dose mg/kg 10-100.

Cytochrome P450 2D6, sequence (P10635 whole entry): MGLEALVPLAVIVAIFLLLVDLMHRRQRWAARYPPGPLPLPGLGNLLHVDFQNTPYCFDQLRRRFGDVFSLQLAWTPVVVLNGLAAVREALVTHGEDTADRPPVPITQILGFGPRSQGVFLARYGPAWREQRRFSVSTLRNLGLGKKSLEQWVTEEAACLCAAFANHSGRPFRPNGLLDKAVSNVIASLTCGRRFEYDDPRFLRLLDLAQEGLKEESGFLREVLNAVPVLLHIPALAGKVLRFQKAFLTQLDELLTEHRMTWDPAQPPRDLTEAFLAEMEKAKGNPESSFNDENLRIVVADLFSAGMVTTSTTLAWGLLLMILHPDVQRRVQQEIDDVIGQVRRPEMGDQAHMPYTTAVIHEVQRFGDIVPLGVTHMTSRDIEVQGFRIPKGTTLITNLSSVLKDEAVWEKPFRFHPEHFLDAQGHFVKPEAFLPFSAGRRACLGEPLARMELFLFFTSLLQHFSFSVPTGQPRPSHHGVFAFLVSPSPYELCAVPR
Cytochrome P450 3A4, sequence (P08684 whole entry): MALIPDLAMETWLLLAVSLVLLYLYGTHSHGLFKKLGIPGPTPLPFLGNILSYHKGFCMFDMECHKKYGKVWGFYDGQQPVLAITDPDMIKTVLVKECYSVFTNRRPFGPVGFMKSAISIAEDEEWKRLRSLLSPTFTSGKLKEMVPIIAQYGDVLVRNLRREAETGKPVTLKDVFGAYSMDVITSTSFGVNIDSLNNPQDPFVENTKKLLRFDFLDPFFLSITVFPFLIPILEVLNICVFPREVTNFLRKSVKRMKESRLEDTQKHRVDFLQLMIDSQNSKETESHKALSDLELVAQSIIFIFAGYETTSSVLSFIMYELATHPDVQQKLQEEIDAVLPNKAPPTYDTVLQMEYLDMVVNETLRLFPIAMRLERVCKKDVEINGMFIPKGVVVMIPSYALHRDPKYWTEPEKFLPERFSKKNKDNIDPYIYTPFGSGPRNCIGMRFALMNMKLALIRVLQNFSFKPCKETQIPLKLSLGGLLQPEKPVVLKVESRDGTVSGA

`Cn1cc(-c2cc(C(O)(C(F)(F)F)C(F)(F)F)cnc2N2CCN(S(=O)(=O)c3ccc(N)nc3)CC2)cn1`: the clearance in data set [1] was 2 L/h/kg. The compound further had a fraction unbound in data set [2] of 0.011. The IC50 against Cytochrome P450 2D6 amounted to 18 µM; on Hexokinase-4 it was 0.001 µM; at Cytochrome P450 3A4, 27 µM. Also, the microsomal CLint at 1 µM in data set [3] came out at 19 µL/min/mg; in data set [4] it was 44 µL/min/mg. In addition, the MRT in data set [5] turned out to be 1.34 h. Moreover, the AUC in [6] was 2.8 µM·h. In data set [7], this compound yielded a bioavailability of 30%. Moreover, the Vd in data set [8] is 2.57 L/kg.

Turning to `CCn1cc(-c2cc(C(O)(C(F)(F)F)C(F)(F)F)cnc2N2CCN(S(=O)(=O)c3ccc(N)nc3)CC2)cn1`, the results for the microsomal CLint at 1 µM in data set [3] and in data set [4] were 20 µL/min/mg and 194 µL/min/mg, respectively. Half-maximal inhibition on Hexokinase-4 (IC50) was put at 0.005 µM.

As for `CC(C)n1cc(-c2cc(C(O)(C(F)(F)F)C(F)(F)F)cnc2N2CCN(S(=O)(=O)c3ccc(N)nc3)CC2)cn1`, the microsomal CLint at 1 µM is 38 µL/min/mg in data set [3] and 198 µL/min/mg in data set [4]. In addition, at Hexokinase-4, the IC50 was found to be 0.023 µM.

Regarding `CC(C)(C)n1cc(-c2cc(C(O)(C(F)(F)F)C(F)(F)F)cnc2N2CCN(S(=O)(=O)c3ccc(N)nc3)CC2)cn1`, the microsomal CLint at 1 µM in data set [3] is 86 µL/min/mg; in data set [4], 459 µL/min/mg. For the same compound, the IC50 on Hexokinase-4 was determined as 0.087 µM.

In the case of `Cc1c(-c2cc(C(O)(C(F)(F)F)C(F)(F)F)cnc2N2CCN(S(=O)(=O)c3ccc(N)nc3)CC2)cnn1C`, the microsomal CLint at 1 µM is 28 µL/min/mg in data set [3] and 88 µL/min/mg in data set [4]. On Hexokinase-4, the IC50 came out at 0.04 µM.

Regarding `Nc1ccc(S(=O)(=O)N2CCN(c3ncc(C(O)(C(F)(F)F)C(F)(F)F)cc3-c3cccnc3)CC2)cn1`, in the data set on Mus musculus, the Activity is recorded as 25%. In data set [1], this compound showed a clearance of 1.5 L/h/kg. Besides, in [2], the fraction unbound was determined as 0.021. For the same compound, the IC50 at Cytochrome P450 2D6 amounted to 27 µM; on Hexokinase-4 it was 0.005 µM; against Cytochrome P450 3A4, 27 µM. Besides, the microsomal CLint at 1 µM in [3] came out at 17 µL/min/mg; in data set [4] it was 20 µL/min/mg. The same compound showed an MRT in [5] of 2.18 h. In data set [6], this compound registered an AUC of 4.74 µM·h. This compound also displayed a bioavailability in [7] of 43%. Further, in data set [8], the Vd is 3.36 L/kg.
